Assay results published in PubChem BioAssay (NCI).
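A five-concentration, 48-hour dose response in 96-well plates underlies each endpoint, interpolated linearly between surrounding concentrations. At the TGI there is no net growth.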

How the values were obtained:
Experiment in all cases: DTP human tumour cell line panel, 48 h
[1] = tested on: DU-145 prostate
[2] = tested on: HCT-15 colon
[3] = tested on: A498 renal
[4] = tested on: ACHN renal
[5] = tested on: TK-10 renal
[6] = tested on: SK-OV-3 ovarian
[7] = tested on: LOX IMVI melanoma
[8] = tested on: SF-295 CNS
[9] = tested on: CAKI-1 renal
[10] = tested on: CCRF-CEM leukemia
[11] = tested on: NCI-H23 lung
[12] = tested on: T-47D breast
[13] = tested on: SF-539 CNS
[14] = tested on: HOP-92 NSCLC
[15] = tested on: SN12C renal
[16] = tested on: K-562 leukemia
[17] = tested on: HL-60(TB) leukemia
[18] = tested on: A549 NSCLC
[19] = tested on: SK-MEL-2 melanoma
[20] = tested on: OVCAR-5 ovarian
[21] = tested on: OVCAR-3 ovarian
[22] = tested on: M14 melanoma
[23] = tested on: SF-268 CNS
[24] = tested on: UO-31 renal
[25] = tested on: MDA-MB-435
[26] = tested on: MCF7 breast
[27] = tested on: HOP-62 NSCLC
[28] = tested on: EKVX NSCLC
[29] = tested on: BT-549 breast
[30] = tested on: NCI-H460 lung
[31] = tested on: UACC-62 melanoma
[32] = tested on: PC-3 prostate
[33] = tested on: RPMI-8226 leukemia
[34] = tested on: U251 CNS
[35] = tested on: MDA-N
[36] = tested on: NCI/ADR-RES ovarian
[37] = tested on: SNB-19 CNS
[38] = tested on: MOLT-4 leukemia
[39] = tested on: NCI-H226 lung
[40] = tested on: HS 578T breast
[41] = tested on: UACC-257 melanoma
[42] = tested on: 786-0 renal
[43] = tested on: SR leukemia
[44] = tested on: OVCAR-8 ovarian
[45] = tested on: COLO 205 colon
[46] = tested on: SK-MEL-28 melanoma
[47] = tested on: SK-MEL-5 melanoma
[48] = tested on: HT29 colon
[49] = tested on: HCT-116 colon
[50] = tested on: IGROV1 ovarian
[51] = tested on: MDA-MB-231 breast
[52] = tested on: SW-620 colon
[53] = tested on: KM12 colon
[54] = tested on: NCI-H522 lung
[55] = tested on: HCC-2998 colon
[56] = tested on: SNB-75 CNS
[57] = tested on: RXF 393 renal
[58] = tested on: MALME-3M melanoma
[59] = tested on: OVCAR-4 ovarian

CC1(C)CC(=O)c2c(nc3ccc4ccccc4c3c2-c2ccc(NC(=O)CCCCCCCCC(=O)Nc3ccc(-c4c5c(nc6ccc7ccccc7c46)CC(C)(C)CC5=O)cc3)cc2)C1
TGI [1]: > 100 µM | TGI [2]: > 100 µM | TGI [3]: > 100 µM | TGI [4]: > 100 µM | TGI [5]: > 100 µM | TGI [6]: > 100 µM | TGI [7]: > 100 µM | TGI [8]: > 100 µM | TGI [9]: > 100 µM | TGI [10]: > 100 µM | TGI [11]: > 100 µM | TGI [12]: > 100 µM | TGI [13]: > 100 µM | TGI [14]: > 100 µM | TGI [15]: > 100 µM | TGI [16]: > 100 µM | TGI [17]: > 100 µM | TGI [18]: > 100 µM | TGI [19]: > 100 µM | TGI [20]: > 100 µM | TGI [21]: > 100 µM | TGI [22]: > 100 µM | TGI [23]: > 100 µM | TGI [24]: > 100 µM | TGI [25]: > 100 µM | TGI [26]: > 100 µM | TGI [27]: > 100 µM | TGI [28]: > 100 µM | TGI [29]: > 100 µM | TGI [30]: > 100 µM | TGI [31]: > 100 µM | TGI [32]: > 100 µM | TGI [33]: > 100 µM | TGI [34]: > 100 µM | TGI [35]: > 100 µM | TGI [36]: > 100 µM | TGI [37]: > 100 µM | TGI [38]: > 100 µM | TGI [39]: > 100 µM | TGI [40]: > 100 µM | TGI [41]: > 100 µM | TGI [42]: > 100 µM | TGI [43]: > 100 µM | TGI [44]: > 100 µM | TGI [45]: > 100 µM | TGI [46]: > 100 µM | TGI [47]: > 100 µM | TGI [48]: > 100 µM | TGI [49]: > 100 µM | TGI [50]: > 100 µM | TGI [51]: > 100 µM | TGI [52]: > 100 µM | TGI [53]: > 100 µM

c1cn(C23C4C5C6C4C2C6C53)cn1 (stereo not drawn)
TGI [1]: > 100 µM | TGI [2]: > 100 µM | TGI [3]: > 100 µM | TGI [4]: > 100 µM | TGI [5]: > 100 µM | TGI [6]: > 100 µM | TGI [7]: > 100 µM | TGI [8]: > 100 µM | TGI [10]: > 100 µM | TGI [11]: > 100 µM | TGI [54]: > 100 µM | TGI [12]: > 100 µM | TGI [13]: > 100 µM | TGI [15]: > 100 µM | TGI [16]: > 100 µM | TGI [17]: > 100 µM | TGI [18]: > 100 µM | TGI [19]: > 100 µM | TGI [55]: > 100 µM | TGI [20]: > 100 µM | TGI [22]: > 100 µM | TGI [23]: > 100 µM | TGI [25]: > 100 µM | TGI [26]: > 100 µM | TGI [27]: > 100 µM | TGI [28]: > 100 µM | TGI [29]: > 100 µM | TGI [30]: > 100 µM | TGI [32]: > 100 µM | TGI [33]: > 100 µM | TGI [34]: > 100 µM | TGI [35]: > 100 µM | TGI [36]: > 100 µM | TGI [37]: > 100 µM | TGI [38]: > 100 µM | TGI [39]: > 100 µM | TGI [40]: > 100 µM | TGI [41]: > 100 µM | TGI [42]: > 100 µM | TGI [43]: > 100 µM | TGI [44]: > 100 µM | TGI [45]: > 100 µM | TGI [46]: > 100 µM | TGI [47]: > 100 µM | TGI [56]: > 100 µM | TGI [48]: > 100 µM | TGI [49]: > 100 µM | TGI [50]: > 100 µM | TGI [51]: > 100 µM | TGI [52]: > 100 µM | TGI [53]: > 100 µM

C/C=C(/C)C(=O)O[C@H](C[C@@H](C)[C@H]1CC(c2ccoc2)OC1=O)[C@@]1(C)C(=O)CCC2O[C@]21C (stereo partly drawn)
TGI [1]: > 100 µM | TGI [2]: > 100 µM | TGI [3]: > 100 µM | TGI [4]: > 100 µM | TGI [5]: > 100 µM | TGI [6]: > 100 µM | TGI [7]: > 100 µM | TGI [8]: > 100 µM | TGI [57]: > 100 µM | TGI [9]: > 100 µM | TGI [10]: > 100 µM | TGI [11]: > 100 µM | TGI [54]: > 100 µM | TGI [12]: > 100 µM | TGI [13]: > 100 µM | TGI [16]: > 100 µM | TGI [17]: > 100 µM | TGI [18]: > 100 µM | TGI [19]: > 100 µM | TGI [55]: > 100 µM | TGI [20]: > 100 µM | TGI [21]: > 100 µM | TGI [22]: > 100 µM | TGI [24]: > 100 µM | TGI [25]: > 100 µM | TGI [26]: > 100 µM | TGI [28]: > 100 µM | TGI [29]: > 100 µM | TGI [30]: > 100 µM | TGI [58]: > 100 µM | TGI [31]: > 100 µM | TGI [32]: > 100 µM | TGI [59]: > 100 µM | TGI [33]: > 100 µM | TGI [34]: > 100 µM | TGI [35]: > 100 µM | TGI [36]: > 100 µM | TGI [37]: > 100 µM | TGI [38]: > 100 µM | TGI [39]: > 100 µM | TGI [40]: > 100 µM | TGI [41]: > 100 µM | TGI [42]: > 100 µM | TGI [43]: > 100 µM | TGI [44]: > 100 µM | TGI [45]: > 100 µM | TGI [46]: > 100 µM | TGI [47]: > 100 µM | TGI [56]: > 100 µM | TGI [48]: > 100 µM | TGI [49]: > 100 µM | TGI [50]: > 100 µM | TGI [51]: > 100 µM | TGI [52]: > 100 µM | TGI [53]: > 100 µM

CCN(CC)c1ccc2cc(C(=O)Nc3cccc4ccccc34)c(=N)oc2c1
TGI [1]: > 100 µM | TGI [2]: > 100 µM | TGI [4]: > 100 µM | TGI [5]: > 100 µM | TGI [6]: > 100 µM | TGI [7]: > 100 µM | TGI [8]: > 100 µM | TGI [57]: > 100 µM | TGI [9]: > 100 µM | TGI [10]: > 100 µM | TGI [54]: > 100 µM | TGI [12]: > 100 µM | TGI [13]: > 100 µM | TGI [14]: > 100 µM | TGI [15]: > 100 µM | TGI [16]: > 100 µM | TGI [17]: > 100 µM | TGI [18]: > 100 µM | TGI [19]: > 100 µM | TGI [55]: > 100 µM | TGI [20]: > 100 µM | TGI [22]: > 100 µM | TGI [23]: > 100 µM | TGI [24]: > 100 µM | TGI [25]: > 100 µM | TGI [26]: > 100 µM | TGI [28]: > 100 µM | TGI [29]: 62.1 µM | TGI [30]: > 100 µM | TGI [58]: > 100 µM | TGI [31]: > 100 µM | TGI [32]: > 100 µM | TGI [59]: > 100 µM | TGI [33]: > 100 µM | TGI [34]: > 100 µM | TGI [35]: > 100 µM | TGI [36]: > 100 µM | TGI [37]: > 100 µM | TGI [39]: > 100 µM | TGI [40]: > 100 µM | TGI [41]: > 100 µM | TGI [42]: > 100 µM | TGI [43]: > 100 µM | TGI [44]: > 100 µM | TGI [45]: > 100 µM | TGI [46]: > 100 µM | TGI [47]: > 100 µM | TGI [56]: > 100 µM | TGI [48]: > 100 µM | TGI [49]: > 100 µM | TGI [50]: > 100 µM | TGI [51]: > 100 µM | TGI [52]: > 100 µM | TGI [53]: > 100 µM
